Assay results: patent US20050159599A1, “Cyclic compound, process for producing the same, and pest control agent” (priority 2002, published 2005)

System: Spodoptera litura
Test: Insecticidal effect for Spodoptera litura by spraying treatment to host crop (Test Example 2)
Type: in vivo
Settings: 100 ppm, sprayed on soybean, third-instar larvae of Spodoptera litura, fifth day after; for pest or weed control at 100 ppm: 120 h, read-out: rate of dead pests (%)
Procedure: Insecticidal Effect for Spodoptera litura by Spraying Treatment to Host Crop
A pesticidal solution, which was prepared by dissolving 5 mg of test compound (represented by the compound Nos. in the above Examples) in 0.5-ml of acetone containing Tween 20 (trade name) and then diluting it to the prescribed concentration (100 ppm) with Dain (trade name, sticker) water diluted 5000-fold, was sprayed on a soybean whose primary leaves had developed completely with spray gun in the amounts wherein the pesticidal solution dripped. After drying the pesticidal solution, two primary leaves were cut off. The leaves were put into an ice cream cup (180 ml), and ten third-instar larvae of Spodoptera litura were set free therein. The cup was left in a temperature-controlled breeding room (25° C.). On the fifth day after, the number of surviving Spodoptera litura was examined. The rate of dead pests was calculated by the following formula. rate of dead pests (%)=(number of dead pests/number of test pests)×100

Row | Structure (SMILES) | rate of dead pests (%) | pest or weed control at 100 ppm
1 | Cc1c(SC(F)(F)F)ccc(N2COCN(C(=O)c3c(F)cccc3F)C2=O)c1C [I-83] | 100% | –
2 | Cc1cc(SC(F)(F)F)c(F)cc1N1COCN(C(=O)c2c(F)cccc2Cl)C1=O [I-302] | 100% | –
3 | CSc1cc(F)c(N2COCN(C(=O)c3c(F)cccc3F)C2=O)c(F)c1 [I-31] | 100% | –
4 | O=C(c1c(F)cccc1Cl)N1COCN(c2ccc([S+]([O-])C(F)(F)F)c(Cl)c2F)C1=O (stereo not shown) [I-273] | 100% | –
5 | Cc1cc([S+]([O-])C(F)(F)F)c(F)cc1N1COCN(C(=O)c2c(F)cccc2Cl)C1=O (stereo not shown) [I-303] | 100% | –
6 | O=C(c1c(F)cccc1Cl)N1COCN(c2ccc([S+]([O-])C(F)(F)C(F)(F)C(F)(F)F)cc2Cl)C1=O (stereo not shown) [I-324] | 100% | –
7 | O=C(c1c(F)cccc1Cl)N1COCN(c2ccc(SC(F)(F)F)c(Cl)c2)C1=O [I-254] | 100% | –
8 | O=C(c1c(F)cccc1Cl)N1COCN(c2ccc([S+]([O-])C(F)(F)F)c(F)c2F)C1=O (stereo not shown) [I-285] | 100% | –
9 | CS(=O)(=O)N1CN(C(=O)c2c(F)cccc2F)C(=O)N(c2ccc(SC(F)(F)F)cc2F)C1 [III-162, 1-(2,6-difluorobenzoyl)-3-[2-fluoro-4-(trifluoromethylthio)phenyl]-5-methylsulfonyltetrahydro-1,3,5-triazin-2(1H)-one] | – | 100%
10 | O=C(c1c(F)cccc1Cl)N1COCN(c2ccc([S+]([O-])C(F)(F)F)c(F)c2)C1=O (stereo not shown) [I-258] | 100% | –
11 | O=C(c1c(F)cccc1Cl)N1COCN(c2ccc(SC(F)(F)F)c(F)c2)C1=O [I-257] | 100% | –
12 | O=C(c1c(F)cccc1F)N1COCN(c2cc(F)c(SC(F)(F)F)c(F)c2)C1=O [I-113] | 100% | –
13 | O=C(c1c(F)cccc1Cl)N1COCN(c2ccc(SC(F)(F)F)c(F)c2F)C1=O [I-284] | 100% | –
14 | O=C(c1c(F)cccc1F)N1COCN(c2ccc(SC(F)(C(F)(F)F)C(F)(F)F)cc2F)C1=O [I-158, 3-(2,6-difluorobenzoyl)-5-[2-fluoro-4-(1,1,1,2,3,3,3-heptafluoro-2-propylthio)phenyl]tetrahydro-4H-1,3,5-oxadiazin-4-one] | – | 100%
15 | O=C(c1c(F)cccc1Cl)N1COCN(c2ccc(SC(F)(F)C(F)(F)C(F)(F)F)cc2F)C1=O [I-320] | 100% | –
16 | O=C(c1c(F)cccc1F)N1CN(C2CC2)CN(c2ccc(Oc3ccc(C(F)(F)F)cc3Cl)cc2F)C1=O [III-36] | 100% | –
17 | CC(=O)N1CN(C(=O)c2c(F)cccc2F)C(=O)N(c2ccc(SC(F)(F)F)cc2F)C1 [III-161, 1-(2,6-difluorobenzoyl)-3-[2-fluoro-4-(trifluoromethylthio)phenyl]-5-aceyltetrahydro-1,3,5-triazin-2(1H)-one] | 100% | –
18 | CN1CN(C(=O)c2c(F)cccc2F)C(=O)N(c2ccc(SC(F)(F)C(F)Cl)cc2F)C1 (stereo not shown) [III-76] | 100% | –
19 | Cc1cc(SC(F)(F)F)ccc1N1COCN(C(=O)c2c(F)cccc2F)C1=O [I-68] | 100% | –
20 | CSc1cc(F)c(N2COCN(C(=O)c3c(F)cccc3Cl)C2=O)c(F)c1 [I-208] | 100% | –
21 | Cc1cc(SC(F)(F)F)c(Cl)cc1N1COCN(C(=O)c2c(F)cccc2Cl)C1=O [I-266] | 100% | –
22 | O=C(c1c(F)cccc1Cl)N1COCN(c2ccc(SC(F)(F)F)c(Cl)c2F)C1=O [I-272] | 100% | –

Row | Structure (SMILES) | rate of dead pests (%) | pest or weed control at 100 ppm
23 | Cc1cc([S+]([O-])C(F)(F)C(F)(F)C(F)(F)F)c(Cl)cc1N1COCN(C(=O)c2c(F)cccc2Cl)C1=O (stereo not shown) [I-330] | 100% | –
24 | CS(=O)(=O)N1CN(C(=O)c2c(F)cccc2F)C(=O)N(c2ccc([S+]([O-])C(F)(F)F)cc2F)C1 (stereo not shown) [III-166] | 100% | –
25 | O=C(c1c(F)cccc1Cl)N1COCN(c2c(F)c(F)c(SC(F)(F)F)c(F)c2F)C1=O [I-296] | 100% | –
26 | O=C(c1c(F)cccc1Cl)N1COCN(c2cc(F)c(SC(F)(F)F)c(F)c2)C1=O [I-290] | 100% | –
27 | O=C(c1c(F)cccc1F)N1COCN(c2c(F)cc([S+]([O-])C(F)(F)F)c(F)c2F)C1=O (stereo not shown) [I-117] | 100% | –
28 | O=C(c1c(F)cccc1F)N1COCN(c2cc(Cl)c(OC(F)(F)C(F)F)c(Cl)c2)C1=O [I-5] | 100% | –
29 | O=C(c1c(F)cccc1F)N1COCN(c2ccc(SC(F)(F)C(F)Cl)cc2F)C1=O (stereo not shown) [I-7] | 100% | –
30 | O=C(c1c(F)cccc1F)N1CN(C(=O)C(F)(F)F)CN(c2ccc(Oc3ccc(C(F)(F)F)cc3Cl)cc2F)C1=O [III-32] | 100% | –
31 | Cc1cc(SC(F)(F)F)ccc1N1CN(C)CN(C(=O)c2c(F)cccc2Cl)C1=O [III-455] | 100% | –
32 | O=C(c1c(F)cccc1F)N1CN(C2CC2)CN(c2cc(Cl)c(F)c(Cl)c2F)C1=O [III-53] | 100% | –
33 | O=C(c1c(F)cccc1F)N1COCN(c2cc(Cl)c(OC(F)(F)C(F)C(F)(F)F)cc2Cl)C1=O (stereo not shown) [I-6] | 100% | –
34 | Cc1cc([S+]([O-])C(F)(F)F)c(Cl)cc1N1COCN(C(=O)c2c(F)cccc2F)C1=O (stereo not shown) [I-90] | 100% | –
35 | O=C(OCc1ccccc1)N1CN(C(=O)c2c(F)cccc2F)C(=O)N(c2ccc(Oc3ccc(C(F)(F)F)cc3Cl)cc2F)C1 [III-22, 5-benzyloxycarbonyl-1-[4-(2-chloro-4-trifluoromethylphenoxy)-2-fluorophenyl]-3-(2,6-difluorobenzoyl)tetrahydro-1,3,5-triazin-2(1H)-one] | – | 100%
36 | Cc1c(N2COCN(C(=O)c3c(F)cccc3Cl)C2=O)ccc([S+]([O-])C(F)(F)F)c1Cl (stereo not shown) [I-300] | 100% | –
37 | O=C(c1c(F)cccc1Cl)N1COCN(c2ccc(SC(F)(F)C(F)(F)F)cc2F)C1=O [I-305] | 100% | –
38 | Cc1c(N2COCN(C(=O)c3c(F)cccc3Cl)C2=O)ccc(SC(F)(F)F)c1Cl [I-299] | 100% | –
39 | Cc1cc(N2COCN(C(=O)c3c(F)cccc3Cl)C2=O)ccc1SC(F)(F)F [I-248] | 100% | –
40 | Cc1cc(SC(F)(F)F)c(Cl)cc1N1COCN(C(=O)c2c(F)cccc2F)C1=O [I-89] | 100% | –
41 | O=C(c1c(F)cccc1F)N1COCN(c2ccc([S+]([O-])C(F)(F)F)c(Cl)c2F)C1=O (stereo not shown) [I-96] | 100% | –
42 | O=C(c1c(F)cccc1Cl)N1COCN(c2c(F)cc([S+]([O-])C(F)(F)F)cc2F)C1=O (stereo not shown) [I-282] | 100% | –
43 | CN1CN(C(=O)c2c(F)cccc2F)C(=O)N(c2cc(Cl)c(OC(F)(F)C(F)C(F)(F)F)cc2Cl)C1 (stereo not shown) [III-69] | 100% | –
